Values of other authors, collected in US20150018665A1, “MOLECULAR AND CELLULAR IMAGING USING ENGINEERED HEMODYNAMIC RESPONSES” (Massachusetts Institute of Technology, priority 2013, published 2015).

Biological target: nNOS (Homo sapiens, UniProt P29475)
Details: blockade of nNOS

Chain of nNOS (P29475 whole entry, species assumed): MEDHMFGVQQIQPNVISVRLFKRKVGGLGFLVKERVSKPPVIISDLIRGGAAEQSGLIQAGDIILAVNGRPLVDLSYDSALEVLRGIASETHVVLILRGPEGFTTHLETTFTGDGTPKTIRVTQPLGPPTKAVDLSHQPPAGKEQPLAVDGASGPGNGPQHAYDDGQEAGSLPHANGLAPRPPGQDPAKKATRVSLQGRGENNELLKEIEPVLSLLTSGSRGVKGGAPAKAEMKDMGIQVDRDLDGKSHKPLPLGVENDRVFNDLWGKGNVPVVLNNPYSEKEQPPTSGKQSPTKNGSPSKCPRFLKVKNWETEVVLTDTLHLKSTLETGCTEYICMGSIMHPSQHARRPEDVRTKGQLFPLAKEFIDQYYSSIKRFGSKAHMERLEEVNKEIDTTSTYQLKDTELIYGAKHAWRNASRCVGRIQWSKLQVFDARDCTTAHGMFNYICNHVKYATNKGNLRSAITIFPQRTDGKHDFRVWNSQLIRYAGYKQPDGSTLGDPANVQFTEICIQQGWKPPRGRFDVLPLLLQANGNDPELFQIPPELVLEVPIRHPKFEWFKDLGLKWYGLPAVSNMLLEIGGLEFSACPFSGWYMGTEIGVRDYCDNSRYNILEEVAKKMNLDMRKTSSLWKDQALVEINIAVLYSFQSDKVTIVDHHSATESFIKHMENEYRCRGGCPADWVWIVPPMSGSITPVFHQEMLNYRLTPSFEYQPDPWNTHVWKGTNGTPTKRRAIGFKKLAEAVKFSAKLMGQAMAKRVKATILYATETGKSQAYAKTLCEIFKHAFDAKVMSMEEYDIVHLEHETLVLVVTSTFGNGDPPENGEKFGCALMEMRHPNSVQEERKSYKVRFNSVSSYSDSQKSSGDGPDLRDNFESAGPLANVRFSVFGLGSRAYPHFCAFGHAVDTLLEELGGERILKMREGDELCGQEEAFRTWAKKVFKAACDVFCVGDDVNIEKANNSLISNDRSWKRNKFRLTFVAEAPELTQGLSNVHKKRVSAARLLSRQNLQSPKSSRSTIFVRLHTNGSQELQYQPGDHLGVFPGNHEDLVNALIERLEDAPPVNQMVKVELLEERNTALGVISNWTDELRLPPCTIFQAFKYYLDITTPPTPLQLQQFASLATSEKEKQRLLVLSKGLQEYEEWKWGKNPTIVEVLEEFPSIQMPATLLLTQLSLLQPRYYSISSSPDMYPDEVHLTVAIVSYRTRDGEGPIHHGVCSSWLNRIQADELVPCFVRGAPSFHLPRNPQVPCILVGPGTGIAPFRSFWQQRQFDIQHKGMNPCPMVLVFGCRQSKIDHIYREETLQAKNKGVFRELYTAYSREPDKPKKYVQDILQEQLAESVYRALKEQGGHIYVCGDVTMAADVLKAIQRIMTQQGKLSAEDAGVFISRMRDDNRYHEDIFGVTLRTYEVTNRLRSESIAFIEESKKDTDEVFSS

SMILES: NC(=NCCC[C@H](N)C(=O)O)N[N+](=O)[O-] [L-nitroarginine]
- effect on fMRI-detectable responses to stimulation: abolishes or sharply reduces
